Where a name gives a salt, the structure may show the parent alone.
Target: IDO1 (Homo sapiens, UniProt P14902)
Assay: IDO1 Cellular Assay in Hela Cells Stimulated with IFNγ
Type: cell-based
Set-up: endogenous in cells; host or cells: HeLa cells stimulated with IFNγ
Conditions: IFNγ 100 ng/mL, 300 uM L-tryptophan, about 48 hours, fluorescence readout, read-out: IDO1 HELA Cell Assay, IC50
Description: Biological Assays IDO1 Cellular Assay in Hela Cells Stimulated with IFNγ
Hela cells were cultured in complete Hela culture medium (90% EMEM, 10% heat-inactivated fetal bovine serum) and expanded to about 1×10^9 cells. The cells were then collected and frozen down at 1×10^7 cells/vial in 1 mL frozen medium (90% complete Hela culture medium, 10% DMSO)
Compounds to be tested were serially diluted in ten 3-fold steps in DMSO starting from 10 mM DMSO stocks in Echo low volume plate(s). Compound dilutions or DMSO alone were then dispensed from the dilution plate(s) into Greiner black 384-well assay plate(s) (catalog #781086, 50 nL/well) using an Echo 550 acoustic liquid handler (Labcyte).
Frozen Hela cells were thawed and transferred into Hela assay medium (99% complete Hela culture medium, 1% Pen/Strep) with 20 mL medium/vial of cells. The cells were spun down at 250 g in a table top centrifuge for 5 min and suspended in same volume of Hela assay medium. The cells were then counted and adjusted to a density of 2×10^5 cells/ml in Hela assay medium. Sterile L-tryptophan were added to the cells with final concentration of 300 uM L-tryptophan. A small aliquot (2 mL/plate) of Hela cells were set aside and were not treated with IFNγ, to serve as the Max-E control. The rest of Hela cells were added with sterile IFNγ (Cat #285-IF, R & D systems) with a final concentration of 100 ng/mL.
Hela cells with and without IFNγ were dispensed to the respective wells of 384-well assay plates containing the compounds. The plates were incubated for about 48 hours at a 37° C., 5% CO2 incubator. Afterwards, 12 μL of 0.5 M methyl isonipecotate in dimethyl sulfoxide were added into each well and the plates were sealed and incubated at 37° C. without CO2 overnight. The plates were centrifuged for 1 min at 200×g. The resulting fluorescence was measured in a Spectramax plate reader (Molecular Devices) with a 400 nm excitation filter and a 510 nm emission filter.
The fluorescence intensity of each well was corrected for the background observed in wells with non-IFNγ-treated cells and was expressed as a fraction of the intensity observed in wells of IFNγ-treated cells and DMSO only. Potencies were calculated by linear least squares fit to the four parameter logistic IC50 equation.
Compounds disclosed herein generally have IC50 of about 1 nM to about 1,000 nM, or more specifically, about 2 nM to about 800 nM, or more specifically, about 5 nM to about 600 nM, or still more specifically, about 10 nM to about 500 nM. Such a result is indicative of the intrinsic activity of the compounds in use as an inhibitor of an IDO enzyme.

IDO1, sequence (P14902 whole entry): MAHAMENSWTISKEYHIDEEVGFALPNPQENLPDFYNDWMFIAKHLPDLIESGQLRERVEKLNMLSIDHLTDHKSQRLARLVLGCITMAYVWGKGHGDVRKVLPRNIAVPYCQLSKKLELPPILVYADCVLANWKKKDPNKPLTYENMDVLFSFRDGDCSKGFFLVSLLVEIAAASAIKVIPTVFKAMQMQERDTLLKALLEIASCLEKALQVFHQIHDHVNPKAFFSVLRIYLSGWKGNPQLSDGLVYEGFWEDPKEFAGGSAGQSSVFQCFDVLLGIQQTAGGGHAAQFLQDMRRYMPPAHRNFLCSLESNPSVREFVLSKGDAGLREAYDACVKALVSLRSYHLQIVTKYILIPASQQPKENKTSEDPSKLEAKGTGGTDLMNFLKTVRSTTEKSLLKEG

| SMILES | IC50 |
| --- | --- |
| CC(C(=O)Nc1ccc(F)cc1)C12CC(Nc3ncc(C(F)(F)F)cc3F)(C1)C2 (centres unmarked) [Example 22, N-(4-fluorophenyl)-2-(3-{[3-fluoro-5-(trifluoromethyl)pyridin-2-yl]amino}bicyclo[1.1.1]pentan-1-yl)propanamide] | 166 nM |
| CC(C(=O)Nc1ccc(F)cc1)C12CC(Nc3nccc4cccnc34)(C1)C2 (centres unmarked) [Example 12, N-(4-fluorophenyl)-2-{3-[(1,7-naphthyridin-8-yl)amino]bicyclo[1.1.1]pentan-1-yl}propanamide] | 587 nM |
| Cc1nccc(NC23CC(C(C)C(=O)Nc4ccc(Cl)cc4)(C2)C3)n1 (racemic) [Example 1, N-(4-chlorophenyl)-2-(3-((2-methylpyrimidin-4-yl)amino)bicyclo[1.1.1]pentan-1-yl)propanamide] | 33.3 nM |
| CC(C(=O)Nc1ccc(F)cc1)C12CC(Nc3nccc(C(F)(F)F)c3C#N)(C1)C2 (centres unmarked) [Example 17, 2-(3-{[3-cyano-4-(trifluoromethyl)pyridin-2-yl]amino}bicyclo[1.1.1]pentan-1-yl)-N-(4-fluorophenyl]propanamide] | 27.2 nM |
| CC(C(=O)Nc1ccc(F)cc1)C12CC(Nc3nncc4ccccc34)(C1)C2 (centres unmarked) [Example 23, N-(4-fluorophenyl)-2-{3-[(phthalazin-1-yl)amino]bicyclo[1.1.1]pentan-1-yl}propanamide] | 183 nM |
| C[C@H](C(=O)Nc1ccc(F)cc1)C12CC(NCc3ccc(Cl)c(Cl)c3)(C1)C2 [Example 32, (S)-2-(3-((3,4-dichlorobenzyl)amino)bicyclo[1.1.1]pentan-1-yl)-N-(4-fluorophenyl)propanamide, TFA] | 51.3 nM |
| C[C@H](C(=O)Nc1ccc(F)cc1)C12CC(N(C)Cc3ccc(Cl)c(Cl)c3)(C1)C2 [Example 33, (S)-2-(3-((3,4-dichlorobenzyl)(methyl)amino)bicyclo[1.1.1]pentan-1-yl)-N-(4-fluorophenyl)propanamide, TFA] | 8.86 nM |
| CC(C(=O)Nc1ccc(F)cc1)C12CC(Nc3ncnc4ccc(F)cc34)(C1)C2 (single isomer, unassigned) [Example 10, N-(4-fluorophenyl)-2-(3-((6-fluoroquinazolin-4-yl)amino)bicyclo[1.1.1]pentan-1-yl)propanamide] | 208 nM |
| C[C@H](C(=O)Nc1ccc(F)cc1)C12CC(N(C)Cc3cccc(C(F)(F)F)c3)(C1)C2 [Example 31, (S)-N-(4-fluorophenyl)-2-(3-(methyl(3-(trifluoromethyl)benzyl)amino)bicyclo[1.1.1]pentan-1-yl)propanamide, TFA] | 15.1 nM |
| C[C@H](C(=O)Nc1ccc(F)cc1)C12CC(NCc3cccc(C(F)(F)F)c3)(C1)C2 [Example 30, (S)-N-(4-fluorophenyl)-2-(3-((3-(trifluoromethyl)benzyl)amino)bicyclo[1.1.1]pentan-1-yl)propanamide, TFA] | 82.3 nM |
| CC(C(=O)Nc1ccc(F)cc1)C12CC(Nc3nc(Cl)nc4c3CCC4)(C1)C2 (single isomer, unassigned) [Example 9, 2-(3-((2-chloro-6,7-dihydro-5H-cyclopenta[d]pyrimidin-4-yl)amino)bicyclo[1.1.1]pentan-1-yl)-N-(4-fluorophenyl)propanamide] | 11.1 nM |
| CC(C(=O)Nc1ccc(F)cc1)C12CC(Nc3nccnc3C(F)(F)F)(C1)C2 (centres unmarked) [Example 21, N-(4-fluorophenyl)-2-(3-{[3-(trifluoromethyl)pyrazin-2-yl]amino}bicyclo[1.1.1]pentan-1-yl)propanamide] | 454 nM |

The remaining compounds from weak to strong by IC50, led by results:

| IC50 | SMILES |
| --- | --- |
| 590 nM | Cc1nc(NC23CC(C(C)C(=O)Nc4ccc(F)cc4)(C2)C3)c2cc(F)ccc2n1 (single isomer, unassigned) [Example 6] |
| 543 nM | CC(C(=O)Nc1ccc(F)cc1)C12CC(Nc3ncccc3C(F)(F)F)(C1)C2 (centres unmarked) [Example 20, N-(4-fluorophenyl)-2-(3-{[3-(trifluoromethyl)pyridin-2-yl]amino}bicyclo[1.1.1]pentan-1-yl)propanamide] |
| 428 nM | Cc1nccc(NC23CC([C@H](C)C(=O)Nc4ccc(Cl)cc4)(C2)C3)n1 (single isomer, unassigned) [Example 3, N-(4-chlorophenyl)-2-(3-((2-methylpyrimidin-4-yl)amino)bicyclo[1.1.1]pentan-1-yl)propanamide] |
| 388 nM | CC(C(=O)Nc1ccc(F)cc1)C12CC(Nc3ncnc4ccccc34)(C1)C2 (single isomer, unassigned) [Example 4, N-(4-fluorophenyl)-2-(3-(quinazolin-4-ylamino)bicyclo[1.1.1]pentan-1-yl)propanamide] |
| 330 nM | CC(C(=O)Nc1ccc(F)cc1)C12CC(Nc3nc(Cl)nc4c3CCC4)(C1)C2 (single isomer, unassigned) [Example 8, 2-(3-((2-chloro-6,7-dihydro-5H-cyclopenta[d]pyrimidin-4-yl)amino)bicyclo[1.1.1]pentan-1-yl)-N-(4-fluorophenyl)propanamide] |
| 173 nM | CC(C(=O)Nc1ccc(F)cc1)C12CC(Nc3cc(C(F)(F)F)ccn3)(C1)C2 (centres unmarked) [Example 18, N-(4-fluorophenyl)-2-(3-{[4-(trifluoromethyl)pyridin-2-yl]amino}bicyclo[1.1.1]pentan-1-yl)propanamide] |
| 138 nM | CC(C(=O)Nc1ccc(F)cc1)C12CC(Nc3ncc(C(F)(F)F)cc3F)(C1)C2 (centres unmarked) [Example 13, N-(4-fluorophenyl)-2-(3-{[3-fluoro-5-(trifluoromethyl)pyridin-2-yl]amino}bicyclo[1.1.1]pentan-1-yl)propanamide] |
| 94.1 nM | CC(C(=O)Nc1ccc(F)cc1)C12CC(Nc3ccnc(C(F)(F)F)n3)(C1)C2 (centres unmarked) [Example 25, N-(4-fluorophenyl)-2-(3-{[2-(trifluoromethyl)pyrimidin-4-yl]amino}bicyclo[1.1.1]pentan-1-yl)propanamide] |
| 79 nM | CC(C(=O)Nc1ccc(F)cc1)C12CC(Nc3ccc(C(F)(F)F)cn3)(C1)C2 (centres unmarked) [Example 15, N-(4-fluorophenyl)-2-(3-{[5-(trifluoromethyl)pyridin-2-yl]amino}bicyclo[1.1.1]pentan-1-yl)propanamide] |
| 74.3 nM | CC(C(=O)Nc1ccc(F)cc1)C12CC(Nc3cccc(C(F)(F)F)n3)(C1)C2 (centres unmarked) [Example 26, N-(4-fluorophenyl)-2-(3-{[6-(trifluoromethyl)pyridin-2-yl]amino}bicyclo[1.1.1]pentan-1-yl)propanamide] |
| 52.4 nM | Cc1nc(NC23CC(C(C)C(=O)Nc4ccc(F)cc4)(C2)C3)ccc1C(F)(F)F (centres unmarked) [Example 14, N-(4-fluorophenyl)-2-(3-{[6-methyl-5-(trifluoromethyl)pyridin-2-yl]amino}bicyclo[1.1.1]pentan-1-yl)propanamide] |
| 33.3 nM | Cc1nccc(NC23CC([C@H](C)C(=O)Nc4ccc(Cl)cc4)(C2)C3)n1 (single isomer, unassigned) [Example 2, N-(4-chlorophenyl)-2-(3-((2-methylpyrimidin-4-yl)amino)bicyclo[1.1.1]pentan-1-yl)propanamide] |
| 27.2 nM | CC(C(=O)Nc1ccc(F)cc1)C12CC(Nc3cc(C(F)(F)F)ncn3)(C1)C2 (centres unmarked) [Example 16, N-(4-fluorophenyl)-2-(3-{[6-(trifluoromethyl)pyrimidin-4-yl]amino}bicyclo[1.1.1]pentan-1-yl)propanamide] |
| 17.7 nM | Cc1nc(NC23CC(C(C)C(=O)Nc4ccc(F)cc4)(C2)C3)c2cc(F)ccc2n1 (single isomer, unassigned) [Example 7] |
| 12.6 nM | CC(C(=O)Nc1ccc(F)cc1)C12CC(Nc3ccnc(C(F)(F)F)c3)(C1)C2 (centres unmarked) [Example 24, N-(4-fluorophenyl)-2-(3-{[2-(trifluoromethyl)pyridin-4-yl]amino}bicyclo[1.1.1]pentan-1-yl)propanamide] |
| 11.9 nM | CC(C(=O)Nc1ccc(F)cc1)C12CC(Nc3c(C(F)(F)F)ccnc3F)(C1)C2 (centres unmarked) [Example 19, N-(4-fluorophenyl)-2-(3-{[2-fluoro-4-(trifluoromethyl)pyridin-3-yl]amino}bicyclo[1.1.1]pentan-1-yl)propanamide] |
| 4.83 nM | C[C@H](C(=O)Nc1ccc(F)cc1)C12CC(Nc3ccnc(C(F)(F)F)c3)(C1)C2 [Example 27, (S)—N-(4-fluorophenyl)-2-(3-((2-(trifluoromethyl)pyridin-4-yl)amino)bicyclo[1.1.1]pentan-1-yl)propanamide] |

From patent publication US11352320B2 (Merck Sharp & Dohme Corp., priority 2018, dated 2022)
